{
  "source": "patent US8907107B2",
  "about": "(Hae Therapeutics Limited, priority 2009, dated 2014)",
  "key": {"MDA-MB-231 cells [1]": {"test_system": "MDA-MB-231 cells", "assay": "Confocal imaging of cell internalization and intracellular on/off switching of 8a", "type": "cell-based", "source_text": "The difference in averaged whole cell red fluorescence taken from off-cells to on-cells was six-fold (FIG. 7)."}, "physchem": {"assay": "physchem", "source_text": "A trace pH=6.0, B trace pH=9.0. Excitation at 640 nm, slit widths 10 nm, 5×10^−7 M in water/CrEL.\nFIG. 6. […] Excitation at 640 nm, slit widths 20 nm, 5×10^−7 M in water/CrEL. INaCl=150 mmol/L."}, "[2]": {"assay": "UV-visible absorption spectra", "type": "physicochemical", "details": "for λabs: longest-wavelength band, from compound data"}, "[3]": {"assay": "Fluorescence emission spectra and quantum yield", "type": "physicochemical", "details": "for λmax emiss.: 5 × 10^−7 M, excitation 640 nm, slit widths 5 nm"}, "MDA-MB-231 cells [4]": {"test_system": "MDA-MB-231 cells", "assay": "Cellular uptake of 16 and 17, CLSM imaging", "type": "cell-based", "details": "5 μM; for cellular uptake: 1 hour incubation, DMEM; for subcellular localisation: 1 hour, 3-D reconstruction, DAPI co-staining", "procedure": "These spectroscopic properties correlate perfectly to the optical requirements of commercially available confocal laser scanning microscopy (CLSM) instruments and small animal optical imaging instruments. Cellular uptake of DMEM solutions of 16 and 17 were utilised to illustrate their potential for in vitro imaging. Compounds 16 and 17 were incubated with MDA-MB-231 cells for 1 hour at 5 μM concentration and the excess dye was removed by washing with PBS before visualisation.\n(§1) MDA-MB-231 cells were seeded into a 8 well chambered microscopy slide and they were grown overnight in DMEM media at 37° C. in the presence of 5% CO2. The media was then removed and 16 and 17 (5 μM) was added, followed by an incubation period of 1 hour in the dark. Cells were then washed with PBS to remove excess compound. Prior to visualization, cells were fixed in 3.7% formaldehyde solution, co-stained with DAPI and a coverslip was mounted onto the microscopy slide. In a similar way, E. coli cells were incubated with 21 (4 μM) in the dark for 10 minutes. The bacterial cells were washed with PBS and An aliquot of this solution was suspended onto a microscopy slide and allowed to dry. Before imaging, a coverslip was mounted onto the microscopy slide. Images were obtained using an LSM510 META confocal laser scanning microscope equipped with 63× numerical aperture 1.4 objective. DAPI was excited at 364 nm and detected with a band-pass filter 385-470 nm, whilst 16, 17 and 21 were excited at 633 nm and their fluorescence was detected through a 650 nm long-pass filter."}, "E. coli cells": {"test_system": "E. coli cells", "assay": "Bacterial cell uptake of 21, confocal imaging", "type": "cell-based, Escherichia coli", "details": "gram-negative; 4 μM, 10 minutes", "procedure": "as §1\n(§2) It was envisaged that the bis-cationic nature of sensitizer 21 would be optimal for uptake into prokaryotic cells thereby broadening their utility. […] Confocal imaging confirmed the binding of 21 to both gram-positive and negative bacterial cells (FIGS. 28a, 28b)."}, "S. aureus cells": {"test_system": "S. aureus cells", "assay": "Bacterial cell uptake of 21, confocal imaging", "type": "cell-based, Staphylococcus aureus", "details": "gram-positive; 4 μM, 10 minutes", "procedure": "as §1, §2"}, "[5]": {"details": "730 nm, excitation 640 nm, 5×10^−7 M in water/CrEL"}},
  "note": "Marks after values point to notes of the source that are not given here.",
  "data": [
    {"smiles": "OC[C@H]1O[C@@H](n2cc(COc3ccc(-c4cc(-c5ccccc5)c5n4[B-](F)(F)[N+]4=C(c6ccc(O)cc6)C=C(c6ccccc6)C4=N5)cc3)nn2)[C@H](O)[C@@H](O)[C@H]1O", "note": "[Compound 8a]", "values": [
      {"measurement": "intracellular emission after addition of basic buffer", "setting": "MDA-MB-231 cells [1]; aqueous carbonate buffer pH 8.0", "value": "almost complete quenching"},
      {"measurement": "subcellular localisation of red emission", "setting": "MDA-MB-231 cells [1]; incubation 1 h, DAPI co-staining", "value": "localised to the cytosol"},
      {"measurement": "intracellular emission after addition of acidic buffer", "setting": "MDA-MB-231 cells [1]; pH 6.6 buffer", "value": "re-established"},
      {"measurement": "difference in averaged whole cell red fluorescence from off-cells to on-cells", "setting": "MDA-MB-231 cells [1]; pH 8.0 versus pH 6.6 buffer", "value": "six-fold"},
      {"measurement": "pKa", "setting": "physchem", "value": 6.9},
      {"measurement": "fluorescence intensity difference between pH 6.6 and 8", "setting": "physchem; [5]", "value": 6, "unit": "fold"},
      {"measurement": "fluorescence intensity difference from pH 6.1 to 7.2", "setting": "physchem; [5]", "value": "greater than 2 fold"},
      {"measurement": "λmax abs.", "setting": "[2]; CH3OH, 5 × 10^−6 M", "value": 687, "unit": "nm"}
    ]},
    {"smiles": "O=C(O)CCCn1cc(COc2ccc(C3=NC(=Nc4[nH]c(-c5ccc(O)cc5)cc4-c4ccccc4)C(c4ccccc4)=C3)cc2)nn1", "note": "[Compound 8b, 4-[4-(4-[5-[5-(4-Hydroxyphenyl)-3-phenyl-1H-pyrrol-2-ylimino]-4-phenyl-5H-pyrrol-2-yl]-phenoxymethyl)-[1,2,3]triazol-1-yl]butyric acid]", "values": [
      {"measurement": "λmax abs.", "setting": "[2]; CH3OH, 5 × 10^−6 M", "value": 687, "unit": "nm"}
    ]},
    {"smiles": "CC(C)(C)OC(=O)NCCn1cc(COc2ccc(C3=NC(=Nc4[nH]c(-c5ccc(O)cc5)cc4-c4ccccc4)C(c4ccccc4)=C3)cc2)nn1", "note": "[Compound 8c, {2-[4-(4-{5-[5-(4-Hydroxyphenyl)-3-phenyl-1H-pyrrol-2-ylimino]-4-phenyl-5H-pyrrol-2-yl}-phenoxymethyl)-[1,2,3]triazol-1-yl]ethyl}carbamic acid t-butyl ester]", "values": [
      {"measurement": "λmax abs.", "setting": "[2]; CH3OH, 5 × 10^−6 M", "value": 687, "unit": "nm"}
    ]},
    {"smiles": "COCCOCCOCCOc1ccc(-c2cc(-c3ccccc3)c3n2[B-](F)(F)[N+]2=C(c4ccc(OCCNC(=O)OC(C)(C)C)cc4)C=C(c4ccccc4)C2=N3)cc1", "note": "[Compound 9]", "values": [
      {"measurement": "fluorescence quantum yield Φf", "setting": "[3]; CHCl3, 1 as standard", "value": 0.36},
      {"measurement": "λemiss", "setting": "[3]; CHCl3, from compound data", "value": 717, "unit": "nm"},
      {"measurement": "Φf", "setting": "[3]; ethanol, 1 used as standard", "value": 0.23},
      {"measurement": "λmax emiss.", "setting": "[3]; ethanol", "value": 714, "unit": "nm"},
      {"measurement": "ε×10^−3", "setting": "[2]; CHCl3, at 689 nm", "value": 87.1},
      {"measurement": "λabs", "setting": "[2]; CHCl3", "value": 689, "unit": "nm"}
    ]},
    {"smiles": "O=C(O)COc1ccc(C2=[N+]3C(=Nc4c(-c5ccccc5)cc(-c5ccc(OCC(=O)O)cc5)n4[B-]3(F)F)C(c3ccccc3)=C2)cc1", "note": "[Compound 16]", "values": [
      {"measurement": "Φf", "setting": "[3]; CHCl3", "value": 0.30},
      {"measurement": "λmax emiss.", "setting": "[3]; DMEM", "value": 722, "unit": "nm"},
      {"measurement": "λmax emiss.", "setting": "[3]; MeOH", "value": 715, "unit": "nm"},
      {"measurement": "λmax emiss.", "setting": "[3]; PBS/BSA (4×10^−4 M BSA)", "value": 718, "unit": "nm"},
      {"measurement": "λmax abs.", "setting": "[2]; CHCl3, 1 × 10^−6 M", "value": 681, "unit": "nm"},
      {"measurement": "λmax abs.", "setting": "[2]; DMEM, 1 × 10^−6 M", "value": 694, "unit": "nm"},
      {"measurement": "λmax abs.", "setting": "[2]; MeOH, 1 × 10^−6 M", "value": 681, "unit": "nm"},
      {"measurement": "λmax abs.", "setting": "[2]; PBS/BSA, 1 × 10^−6 M", "value": 692, "unit": "nm"},
      {"measurement": "cellular uptake", "setting": "MDA-MB-231 cells [4]", "value": "efficiently taken up by cells"},
      {"measurement": "subcellular localisation", "setting": "MDA-MB-231 cells [4]", "value": "primarily to the cytoplasm"}
    ]},
    {"smiles": "O=S(=O)(O)CCCOc1ccc(C2=[N+]3C(=Nc4c(-c5ccccc5)cc(-c5ccc(OCCCS(=O)(=O)O)cc5)n4[B-]3(F)F)C(c3ccccc3)=C2)cc1", "note": "[Compound 17]", "values": [
      {"measurement": "Φf", "setting": "[3]; CHCl3", "value": 0.31},
      {"measurement": "λmax emiss.", "setting": "[3]; CHCl3", "value": 726, "unit": "nm"},
      {"measurement": "λmax emiss.", "setting": "[3]; DMEM", "value": 728, "unit": "nm"},
      {"measurement": "λmax emiss.", "setting": "[3]; PBS/BSA (4×10^−4 M BSA)", "value": 718, "unit": "nm"},
      {"measurement": "λmax abs.", "setting": "[2]; CHCl3, 1 × 10^−6 M", "value": 694, "unit": "nm"},
      {"measurement": "λmax abs.", "setting": "[2]; CHCl3, 1 × 10^−6 M, as tetra-butylammonium salt", "value": "694^e nm"},
      {"measurement": "λmax abs.", "setting": "[2]; DMEM, 1 × 10^−6 M", "value": 694, "unit": "nm"},
      {"measurement": "λmax abs.", "setting": "[2]; MeOH, 1 × 10^−6 M", "value": 687, "unit": "nm"},
      {"measurement": "λmax abs.", "setting": "[2]; PBS/BSA, 1 × 10^−6 M", "value": 692, "unit": "nm"},
      {"measurement": "cellular uptake", "setting": "MDA-MB-231 cells [4]", "value": "efficiently taken up by cells"},
      {"measurement": "subcellular localisation", "setting": "MDA-MB-231 cells [4]", "value": "primarily to the cytoplasm"}
    ]},
    {"smiles": "CCN(CC)Cc1ccc(C2=CC(c3ccc(OC)cc3)=[N+]3C2=Nc2c(-c4ccc(CN(CC)CC)cc4)cc(-c4ccc(OC)cc4)n2[B-]3(F)F)cc1", "note": "[Compound 20]", "values": [
      {"measurement": "ε", "setting": "[2]; CHCl3, at 691 nm", "value": "76,000 Lmol^−1 cm^−1"},
      {"measurement": "λabs", "setting": "[2]; CHCl3", "value": 691, "unit": "nm"}
    ]},
    {"smiles": "CC[N+](C)(CC)Cc1ccc(C2=CC(c3ccc(OC)cc3)=[N+]3C2=Nc2c(-c4ccc(C[N+](C)(CC)CC)cc4)cc(-c4ccc(OC)cc4)n2[B-]3(F)F)cc1.[I-].[I-]", "note": "[Compound 21]", "values": [
      {"measurement": "Φf", "setting": "[3]; CHCl3", "value": 0.22},
      {"measurement": "λmax emiss.", "setting": "[3]; CHCl3", "value": 735, "unit": "nm"},
      {"measurement": "λmax emiss.", "setting": "[3]; DMEM", "value": 737, "unit": "nm"},
      {"measurement": "λmax emiss.", "setting": "[3]; MeOH", "value": 732, "unit": "nm"},
      {"measurement": "λmax emiss.", "setting": "[3]; PBS/BSA (4×10^−4 M BSA)", "value": 730, "unit": "nm"},
      {"measurement": "cellular uptake / binding", "setting": "E. coli cells", "value": "sufficient for cellular uptake"},
      {"measurement": "cellular uptake / binding", "setting": "S. aureus cells", "value": "sufficient for cellular uptake"},
      {"measurement": "λmax abs.", "setting": "[2]; CHCl3, 1 × 10^−6 M", "value": 702, "unit": "nm"},
      {"measurement": "λmax abs.", "setting": "[2]; DMEM, 1 × 10^−6 M", "value": 709, "unit": "nm"},
      {"measurement": "λmax abs.", "setting": "[2]; MeOH, 1 × 10^−6 M", "value": 702, "unit": "nm"},
      {"measurement": "λmax abs.", "setting": "[2]; PBS/BSA, 1 × 10^−6 M", "value": 706, "unit": "nm"}
    ]}
  ]
}
